{"source": "patent US20240398823A1", "about": "“DUAL INHIBITOR OF HISTONE DEACETYLASE 6 AND HEAT SHOCK PROTEIN 90” (TAIPEI MEDICAL UNIVERSITY, priority 2021, published 2024)", "key": {"[1]": {"test_system": "CD8 cells and granzyme B in mouse tumor area", "test": "IHC of CD8 cell infiltration and granzyme B in CT26 tumor area", "assay_type": "in vivo", "details": "CT26 tumors, day 25, IHC, 10, 25, 50 mg/kg", "method": "The tumors were removed from mice on day 25 and embedded in paraffin and sectioned for immunohistochemical staining. […] Bar, SD.\nThe effects of the HSP90/HDAC6 dual inhibitors as described in Synthesis Examples (such as Compounds 63, 64, and 66 to 76) on several factors were evaluated. IHC-Paraffin: Tumor tissues were excised from the mice, fixed in 4% formaldehyde solution in PBS, and embedded in paraffin. Sections of 4-5 μm were cut and placed in an oven at 60° C. for overnight. After deparaffinizing and rehydrating the section, the antigen retrieval was performed with citrate buffer (10 mM citrate acid, pH 6) or Tris buffer (10 mM Tris, 1 mM EDTA, pH9) by autoclave for 30 min at 121 C. The sections were blocked with 10% goat serum and then incubated with primary antibodies against the following antigens: IDO (Santa Cruz Biotechnology Dallas, TX, USA), CD8 (Novus, Littleton, CO, USA) and granzyme B (Abcam, Cambridge, UK) at 4 C for overnight. […] Images of the tumor tissues sections were captured by Mirax Scan (CARL ZEISS, Germany) or TissueFAXS (Vienna, Austria) and analyzed by HistoQuest software (Vienna, Austria).\nIt is known that TME blocks the infiltration of functional immune cells into the tumor area. The effects of Compound 75 on CD8 cell infiltration in the tumor area were evaluated. […] Therefore, the ability of CD8+ T cells to secrete granzyme B was evaluated."}, "HSP90β": {"biological_target": "T1, HSP90β (Homo sapiens, UniProt P08238)", "T1 construct": "Reaction Biology Corporation (ran the assay as a service)", "T1 sequence (P08238 whole entry)": "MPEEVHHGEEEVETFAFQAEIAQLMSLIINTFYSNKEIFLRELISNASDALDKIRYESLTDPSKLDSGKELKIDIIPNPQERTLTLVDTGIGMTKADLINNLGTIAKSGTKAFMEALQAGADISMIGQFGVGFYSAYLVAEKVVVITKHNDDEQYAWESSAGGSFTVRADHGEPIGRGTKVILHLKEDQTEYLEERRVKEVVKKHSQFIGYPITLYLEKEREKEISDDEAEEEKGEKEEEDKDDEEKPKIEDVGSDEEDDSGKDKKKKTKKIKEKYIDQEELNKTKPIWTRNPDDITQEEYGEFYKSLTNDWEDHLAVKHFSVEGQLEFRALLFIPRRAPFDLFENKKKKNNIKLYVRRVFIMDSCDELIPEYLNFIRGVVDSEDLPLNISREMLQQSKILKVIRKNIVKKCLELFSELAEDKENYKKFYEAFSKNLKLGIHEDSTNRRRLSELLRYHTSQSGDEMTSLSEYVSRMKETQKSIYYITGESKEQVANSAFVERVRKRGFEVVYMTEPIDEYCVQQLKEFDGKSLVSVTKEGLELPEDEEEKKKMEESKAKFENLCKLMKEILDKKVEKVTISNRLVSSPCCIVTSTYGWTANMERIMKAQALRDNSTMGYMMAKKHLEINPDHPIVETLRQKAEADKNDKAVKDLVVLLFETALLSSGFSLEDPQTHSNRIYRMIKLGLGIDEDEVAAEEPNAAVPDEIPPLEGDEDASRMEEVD", "test": "HSP90 inhibition assay, FITC-geldanamycin competition fluorescence polarization, HSP90β", "assay_type": "binding", "details": "FITC-GM competition"}, "HDAC6": {"biological_target": "T2, HDAC6 (Homo sapiens, UniProt Q9UBN7)", "T2 construct": "Reaction Biology Corporation (ran the assay as a service)", "T2 sequence (Q9UBN7 1-1215)": "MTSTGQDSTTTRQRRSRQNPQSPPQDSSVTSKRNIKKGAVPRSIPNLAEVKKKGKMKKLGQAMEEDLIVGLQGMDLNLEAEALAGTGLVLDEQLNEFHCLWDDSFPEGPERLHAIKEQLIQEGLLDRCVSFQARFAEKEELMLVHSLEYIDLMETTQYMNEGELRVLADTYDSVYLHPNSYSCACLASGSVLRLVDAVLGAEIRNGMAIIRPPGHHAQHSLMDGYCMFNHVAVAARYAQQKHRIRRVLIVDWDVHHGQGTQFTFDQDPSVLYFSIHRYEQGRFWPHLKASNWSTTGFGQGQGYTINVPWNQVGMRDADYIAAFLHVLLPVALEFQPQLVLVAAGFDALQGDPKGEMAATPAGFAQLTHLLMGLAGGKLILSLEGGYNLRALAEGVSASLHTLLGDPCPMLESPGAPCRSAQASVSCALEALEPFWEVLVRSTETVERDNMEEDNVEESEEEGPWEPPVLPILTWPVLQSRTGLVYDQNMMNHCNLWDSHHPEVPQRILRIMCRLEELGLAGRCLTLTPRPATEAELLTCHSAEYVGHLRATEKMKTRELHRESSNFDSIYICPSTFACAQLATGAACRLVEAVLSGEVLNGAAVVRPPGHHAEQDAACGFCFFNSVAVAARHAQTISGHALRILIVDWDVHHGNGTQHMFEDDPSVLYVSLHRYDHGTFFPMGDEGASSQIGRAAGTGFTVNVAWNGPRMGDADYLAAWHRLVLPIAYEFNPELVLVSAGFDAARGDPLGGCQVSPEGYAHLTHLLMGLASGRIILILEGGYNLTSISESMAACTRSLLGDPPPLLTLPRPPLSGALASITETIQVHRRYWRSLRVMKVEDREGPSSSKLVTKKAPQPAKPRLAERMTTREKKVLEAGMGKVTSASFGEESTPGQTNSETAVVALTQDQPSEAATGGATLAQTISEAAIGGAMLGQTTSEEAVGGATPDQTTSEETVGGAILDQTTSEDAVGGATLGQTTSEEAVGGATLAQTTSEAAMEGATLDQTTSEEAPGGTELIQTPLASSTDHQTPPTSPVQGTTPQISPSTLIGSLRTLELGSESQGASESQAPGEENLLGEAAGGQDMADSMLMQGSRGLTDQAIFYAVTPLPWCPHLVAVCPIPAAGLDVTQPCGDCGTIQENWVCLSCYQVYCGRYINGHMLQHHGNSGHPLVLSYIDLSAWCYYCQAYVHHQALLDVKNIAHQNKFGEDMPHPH", "test": "HDAC enzymes inhibition assay (Reaction Biology), HDAC6", "assay_type": "biochemical", "details": "10-dose, 3-fold dilution from 10 μM, single experiment"}, "[2]": {"test_system": "PD-L1 and IDO expression in tumor region (CT26)", "test": "IHC of PD-L1 and IDO in CT26 tumor region", "assay_type": "in vivo, mouse", "details": "CT26 tumors, day 25, IHC, 10, 25, 50 mg/kg", "method": "The tumors were removed and immunohistochemically stained at 25 days after intravenous tail injection in mice with colorectal cancer tumors. […] Bar, SD.\nThe effects of the HSP90/HDAC6 dual inhibitors as described in Synthesis Examples (such as Compounds 63, 64, and 66 to 76) on several factors were evaluated. IHC-Paraffin: Tumor tissues were excised from the mice, fixed in 4% formaldehyde solution in PBS, and embedded in paraffin. Sections of 4-5 μm were cut and placed in an oven at 60° C. for overnight. After deparaffinizing and rehydrating the section, the antigen retrieval was performed with citrate buffer (10 mM citrate acid, pH 6) or Tris buffer (10 mM Tris, 1 mM EDTA, pH9) by autoclave for 30 min at 121 C. The sections were blocked with 10% goat serum and then incubated with primary antibodies against the following antigens: IDO (Santa Cruz Biotechnology Dallas, TX, USA), CD8 (Novus, Littleton, CO, USA) and granzyme B (Abcam, Cambridge, UK) at 4 C for overnight. IHC— Frozen for PD-L1: Tumor tissues were collected from the mice, embedded in OCT compound (Sakura Finetek, Torrance, CA, U.S.A.). […] Images of the tumor tissues sections were captured by Mirax Scan (CARL ZEISS, Germany) or TissueFAXS (Vienna, Austria) and analyzed by HistoQuest software (Vienna, Austria).\nCompound 75 was evaluated to determine its ability to reduce PD-L1 and IDO in the tumor microenvironment."}, "serum TGF-β and IL-2": {"test_system": "serum TGF-β and IL-2", "test": "Serum cytokines in CT26 tumor mice", "assay_type": "in vivo, mouse", "details": "day 25, 10, 25, 50 mg/kg", "method": "FIGS. 11A and 11B show effects of Compound 75 on peripheral blood cytokines. BALB/c mice with CT26 tumors were treated with 10, 25 and 50 mg/kg of Compound 75 every two days and sacrificed on day 25. Data are expressed as mean t S.D. N values greater than 3. *P<0.05; ** P<0.01; *** P<0.001, compared to the control group.\nThe reasons for the decrease of Treg in blood were further investigated."}}}
{"smiles": "COc1ccc(N(Cc2ccc(C(=O)NO)cc2)C(=O)c2cc(C(C)C)c(O)cc2O)cc1", "note": "[Compound 75, 2,4-Dihydroxy-N-(4-hydroxycarbamoyl-benzyl)-5-isopropyl-N-(4-methoxy-phenyl)-benzamide]", "values": [{"measurement": "CD8 immune cell infiltration in the mouse tumor area", "setting": "[1]", "result": "significantly increased"}, {"measurement": "granzyme B secretion", "setting": "[1]", "result": "concentration-dependent increase"}, {"measurement": "IC50", "setting": "HSP90β", "result": 66.9, "unit": "nM"}, {"measurement": "IC50", "setting": "HDAC6", "result": 4.56, "unit": "nM"}, {"measurement": "PD-L1 and IDO expressions in the tumor region", "setting": "[2]", "result": "reduces PD-L1 and IDO expressions"}, {"measurement": "serum IL-2", "setting": "serum TGF-β and IL-2", "result": "had no effect"}, {"measurement": "serum TGF-β expression", "setting": "serum TGF-β and IL-2", "result": "significantly reduced"}]}
